Experimental data: patent US8802662B2, “Anti-hepatitis C composition and method for preparing drug for inhibiting hepatitis C viruses or treating hepatitis C” (Industrial Technology Research Institute, priority 2009, dated 2014)
Values after ≈ are worked out from the molar mass of the structure shown.

Tests used:
Huh-luc/neo-ET cells = assay: in vitro; type: cell-based; details: MTT, culturing for two days; for CC15: 15% of the cell cytotoxic concentration: from trend line formula (y = 85)
Protocol: (§1) Huh-luc/neo-ET cells with concentration of 2.5×10^4 cells/100 μl/well were seeded into a 96 well culture plate (Corning Incorporation COSTAR, 3599) and placed into a cell incubator for culturing.
(§2) The next day, a toosendanin sample was diluted with a DMEM culture medium to the concentrations of 28.73 μg/ml, 9.57 μg/ml, 3.19 μg/ml, 1.06 μg/ml, 0.35 μg/ml, 0.11 μg/ml, 0.039 μg/ml and 0.013 μg/ml, respectively, or to become the concentrations of 114.92 μg/ml, 38.33 μg/ml, 12.77 μg/ml, 4.25 μg/ml, 1.42 μg/ml, 0.46 μg/ml, 0.16 μg/ml and 0.057 μg/ml, respectively. The initial medium in the 96 well culture plate was sucked out by a vacuum pump (DOAT-704AA) without removing the cells. Then, the toosendanin culture medium with concentrations mentioned above were added into the 96 well culture plate containing cells with amount of 100 μl/well as experiment groups while untreated culture medium were added to the cells as a control group.
(§3) Then, PBS was removed and 50 μl of medium containing MTT (Sigma, M2128) with a concentration of 0.5 mg/ml was added into each well of the 96 well culture plate. After the 96 well culture plate was placed in a CO2 culture incubator for 1 hour, DMSO (Riedel-de Haën, 60153) with amount of 150 μl/well was added into the 96 well culture plate and vortexed by a votexer (KS shaker Type 670) to thoroughly mix the resulting purple precipitate. After the purple precipitate was thoroughly mixed, the 96 well culture plate was placed in a continuous wave length microwell plate analysis system (Molecular Devices, SPECTRAMAX 190) to measure the absorbance of cells at 560 nm.
(§4) The average absorbance of the control groups was used as 100% of the cell survival rates (%) to calculate the cell survival rates (%) of the experiment groups with different concentrations of toosendanin samples. The formula of the cell survival rate was: (absorbance of experiment group/absorbance of the control group)×100%. The cell survival rates of all experiment groups were drawn to form an x-y graph and thus a trend line formula with R^2 value greater than 0.9 was obtained.
(§5) In the trend line formula, when y was 50, the resulting X meant 50% of the cell cytotoxic concentration (CC50) or when y was 85, the resulting X meant 15% of the cell cytotoxic concentration (CC15). Due to the property of the sample, CC15 was calculated from the trend line formula generated by the experiment groups containing samples with concentrations of 3.19 μg/ml, 1.06 μg/ml, 0.35 μg/ml, 0.11 μg/ml and 0.039 μg/ml.
(§6) When the cell survival rates (%) was greater than 85%, it meant that the sample at or less than the concentration (the concentration less than CC15) was non-cytotoxic. […]

[1] = system: HCV replicon (I389luc-ubi-NS3-3′/ET) in Huh-luc/neo-ET cell; assay: HCV replication inhibition by firefly luciferase activity in Huh-luc/neo-ET cells (HCV replicon system); details: for IC50 / IC90: Hepatitis C virus, Huh-luc/neo-ET, 48 h; for IC50: read-out: IC50: 50% of the HCV replication inhibition concentration, Huh-luc/neo-ET cells, luciferase activity, co-cultured 2 days; for IC90: read-out: IC90: 90% of the HCV replication inhibition concentration; for IC50: 50% of the HCV replication inhibition concentration: Huh-luc/neo-ET cells, luciferase activity, co-cultured 2 days; for EW (effect window, CC50/IC50): ratio of CC50 to IC50 in Huh-luc/neo-ET cells
Description: The Huh-luc/neo-ET cell has I389luc-ubi-NS3-3′/ET replicon and could be used to monitor the replicative capability of the HCV. The Huh-luc/neo-ET is able to express a firefly luciferase-ubiquitin-neomycin fusion protein translated by the internal ribosomal entry site (IRES) of the hepatitis C virus and is able to express the hepatitis C viral nonstructural protein (NS3-5B) including protease, helicase and polymerase translated by the IRES of the encephalomyocarditis virus (EMCV). When the replication complex composed of the IRES of the hepatitis C virus or the nonstructural protein of the hepatitis C virus is influenced by a candidate, the effect of the candidate for inhibiting the activity of the hepatitis C virus repilcon can be estimated by determining the intensity of the firefly luciferase activity. The hepatitis C virus inhibition effect of the limonoid compound can be determined by determining the firefly luciferase activity expressed by the Huh-luc/noe-ET cell in presence of the limonoid compound.
5.96 g of chuanlianzi ethanol extract was dissolved in 20 ml of a mixture of methanol and water and extracted with 15 ml of n-hexane, diethyl ether, dichloromethane and ethyl acetate for 2-3 times, respectively to obtain an n-hexane layer extraction solution, diethyl ether layer extraction solution, dichloromethane layer extraction solution and ethyl acetate layer extraction solution, respectively. Each layer extraction solution was concentrated and dried to obtain an n-hexane layer extract, diethyl ether layer extract, dichloromethane layer extract and ethyl acetate layer extract, respectively. The hepatitis C inhibition activity of each layer extract was determined by using a Huh-luc/neo-ET cell (HCV replication system) for testing thereof.
The Huh-luc/neo-ET cells were co-cultured with toosendanin with concentrations of 0.15 μg/ml, 0.075 μg/ml, 0.038 μg/ml, 0.019 μg/ml and 0.0085 μg/ml, respectively for 2 days and then were washed twice by 100 μl of 1×PBS (1 mM KH2PO4, 10 mM Na2HPO4, 137 mM NaCl, 2.7 mM KCl) and PBS was removed. 35 μl of 1× passive lysis buffer (Promega, E1941) was added to the cells and vortexed by a vortexer for 10 minutes to thoroughly mix the cells.
Cell suspension with an amount of 30 μl/well was added to a 96 well white plate(NUNC, 236108) for measuring luciferase activity, and 40 μl/well of luminescence analysis buffer and 20 μl/well of luminescence substrate (1 mM D-Luciferin) were sequentially added into the 96 well white plates. After the substrate was added, a microplate luminescence meter (Berthold, MPL4) was used to measure the luciferase activity (Rlu/s).
The luciferase activity of the control group was used as a standard to calculate the hepatitis C virus inhibition rates (%) of the experiment groups. The formula of inhibition rates (%) was: {[(luciferase activity of control group)−(luciferase activity of experiment group)]/(luciferase activity of control group)}×100%. After the sample was serial diluted and the HCV replication inhibition rates were determined at different concentrations, 50% of the HCV replication inhibition concentration (IC50) was calculated by grafit5 software (Erithacus Software).
For each experiment, except for the PEG IFN alpha-2a with concentrations of 0.5 ng/ml and 0.1 ng/ml were used as positive controls for the IC50 test. Additionally, cyclosporine A (CsA) with a concentration of 1 μg/ml was also used as a positive control for the IC50 test.
The experiment procedure was the same as Example 2 while the testing sample was replaced with Trichilin H. The Huh-luc/neo-ET cells were co-cultured with Trichilin H with concentrations of 0.75 μg/ml, 0.5 μg/ml, 0.25 μg/ml and 0.125 μg/ml, respectively.

in vitro = type: cell-based; details: human, Huh-luc/neo-ET cells, MTT, culturing for two days; read-out: CC50: 50% of the cell cytotoxic concentration
Protocol: as §1, §2, §3, §4, §5, §6

SMILES	CC50: 50% of the cell cytotoxic concentration (Huh-luc/neo-ET cells)	CC15: 15% of the cell cytotoxic concentration (Huh-luc/neo-ET cells)	IC50 [1]	IC90 [1]	IC50: 50% of the HCV replication inhibition concentration [1]	EW (effect window, CC50/IC50) [1]	EW (effect window, CC50/IC50) ([1]; listed as toosendanin)	CC50 (in vitro)
CC(=O)O[C@@H]1C[C@H](O)[C@@]23CO[C@@H](O)[C@]1(C)[C@@H]2C[C@@H](O)[C@]1(C)[C@@H]3C(=O)[C@H](OC(C)=O)[C@@]2(C)[C@H](c3ccoc3)C[C@H]3O[C@]321 [Toosendanin, toosendanin]	>114 µg/mL	0.34 µg/mL	< 0.05 µg/mL	0.35 µg/mL (≈ 0.609 µM)	0.045 ± 0.004 µg/mL	>2531.6	greater than 2500	
CC(=O)OC1C(OC(C)=O)C2(C)C(OC(=O)C(C)C)OCC3(C1O)C2CC(O)C1(C)C3C(=O)C(OC(C)=O)C2(C)C(c3ccoc3)CC3OC321 (stereo not drawn) [Trichilin H]		0.7 µg/mL	< 0.5 µg/mL	0.9 µg/mL (≈ 1.28 µM)	0.48 ± 0.10 µg/mL			> 50 µg/mL
